In ChEMBL document CHEMBL5725844, “Indazolyl thiadiazolamines and related compounds for inhibition of Rho-associated protein kinase and the treatment of disease” (2018):

What was measured:
[1] = biological target: Rho-associated protein kinase 1 (Homo sapiens, UniProt Q13464); experiment: (§1) Protein constructs were purified from a baculovirus expression system. The peptide substrate was fluorescent LANCE® Ultra ULight-CREBtide: […] (PerkinElmer, # TRF0107-D). Kinase reactions were carried out in a 10 μL volume in 384-well plates: 50 nM ULight-CREBtide substrate, 2 nM constitutively active ROCK1 or ROCK2 kinase, and test compound in DMSO (or DMSO only for controls) were diluted into assay buffer containing 50 mM Tris-HCl (pH=7.5), 10 mM MgCl2, 1 mM EGTA, 0.01% Tween-20, and 2 mM DTT such that the final concentration of DMSO was 0.5%. After a 90 minute incubation at room temperature on a shaker table, the kinase reaction was stopped by addition of 10 mM EDTA, and phosphorylation of the substrate was detected by adding 1 nM LANCE® Ultra Europium-anti-phospho-CREB (ser133) antibody (PerkinElmer, # TRF0200-D) and incubating for 60 minutes on a shaker at room temperature. The flurorescence resonance energy transfer (FRET) signals were read and analyzed on an Envision¿ 2103 Multilabel Reader (Perkin Elmer).
Chain of Rho-associated protein kinase 1 (Q13464 whole entry): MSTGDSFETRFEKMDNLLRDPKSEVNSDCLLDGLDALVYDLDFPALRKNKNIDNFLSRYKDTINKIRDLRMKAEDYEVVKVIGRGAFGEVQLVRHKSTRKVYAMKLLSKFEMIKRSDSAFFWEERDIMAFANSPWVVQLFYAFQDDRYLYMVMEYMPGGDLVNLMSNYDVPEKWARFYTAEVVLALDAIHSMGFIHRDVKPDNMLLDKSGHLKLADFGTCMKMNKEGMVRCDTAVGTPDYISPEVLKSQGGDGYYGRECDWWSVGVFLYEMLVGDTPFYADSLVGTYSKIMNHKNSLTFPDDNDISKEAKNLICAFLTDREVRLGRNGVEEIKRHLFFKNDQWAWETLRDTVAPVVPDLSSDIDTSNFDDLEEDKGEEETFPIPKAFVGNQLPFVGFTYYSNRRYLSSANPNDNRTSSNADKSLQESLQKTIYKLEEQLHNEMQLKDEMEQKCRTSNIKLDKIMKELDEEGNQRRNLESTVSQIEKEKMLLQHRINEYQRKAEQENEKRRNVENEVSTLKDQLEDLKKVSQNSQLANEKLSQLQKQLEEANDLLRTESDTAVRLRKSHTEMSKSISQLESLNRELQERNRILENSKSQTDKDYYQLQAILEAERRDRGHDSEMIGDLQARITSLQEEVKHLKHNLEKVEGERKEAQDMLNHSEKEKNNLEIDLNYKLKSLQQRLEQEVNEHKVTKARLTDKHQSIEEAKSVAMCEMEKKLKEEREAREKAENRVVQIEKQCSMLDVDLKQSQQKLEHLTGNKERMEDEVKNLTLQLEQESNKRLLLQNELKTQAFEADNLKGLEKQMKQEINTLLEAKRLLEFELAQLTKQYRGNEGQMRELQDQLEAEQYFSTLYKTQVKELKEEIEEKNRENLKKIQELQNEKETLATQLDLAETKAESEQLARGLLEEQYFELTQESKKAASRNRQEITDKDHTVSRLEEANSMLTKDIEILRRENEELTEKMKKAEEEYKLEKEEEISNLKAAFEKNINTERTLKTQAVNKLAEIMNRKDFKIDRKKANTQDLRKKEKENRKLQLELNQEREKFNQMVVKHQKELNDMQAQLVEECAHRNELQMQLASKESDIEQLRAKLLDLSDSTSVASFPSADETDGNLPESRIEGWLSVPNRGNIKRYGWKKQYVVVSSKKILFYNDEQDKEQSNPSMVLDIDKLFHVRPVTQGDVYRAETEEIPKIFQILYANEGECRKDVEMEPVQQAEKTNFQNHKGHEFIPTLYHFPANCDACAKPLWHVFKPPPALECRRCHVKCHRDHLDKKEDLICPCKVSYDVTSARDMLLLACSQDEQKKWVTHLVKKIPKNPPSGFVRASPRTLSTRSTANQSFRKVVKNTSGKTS

[2] = biological target: Rho-associated protein kinase 2 (Homo sapiens, UniProt O75116); experiment: as §1
Chain of Rho-associated protein kinase 2 (O75116 whole entry): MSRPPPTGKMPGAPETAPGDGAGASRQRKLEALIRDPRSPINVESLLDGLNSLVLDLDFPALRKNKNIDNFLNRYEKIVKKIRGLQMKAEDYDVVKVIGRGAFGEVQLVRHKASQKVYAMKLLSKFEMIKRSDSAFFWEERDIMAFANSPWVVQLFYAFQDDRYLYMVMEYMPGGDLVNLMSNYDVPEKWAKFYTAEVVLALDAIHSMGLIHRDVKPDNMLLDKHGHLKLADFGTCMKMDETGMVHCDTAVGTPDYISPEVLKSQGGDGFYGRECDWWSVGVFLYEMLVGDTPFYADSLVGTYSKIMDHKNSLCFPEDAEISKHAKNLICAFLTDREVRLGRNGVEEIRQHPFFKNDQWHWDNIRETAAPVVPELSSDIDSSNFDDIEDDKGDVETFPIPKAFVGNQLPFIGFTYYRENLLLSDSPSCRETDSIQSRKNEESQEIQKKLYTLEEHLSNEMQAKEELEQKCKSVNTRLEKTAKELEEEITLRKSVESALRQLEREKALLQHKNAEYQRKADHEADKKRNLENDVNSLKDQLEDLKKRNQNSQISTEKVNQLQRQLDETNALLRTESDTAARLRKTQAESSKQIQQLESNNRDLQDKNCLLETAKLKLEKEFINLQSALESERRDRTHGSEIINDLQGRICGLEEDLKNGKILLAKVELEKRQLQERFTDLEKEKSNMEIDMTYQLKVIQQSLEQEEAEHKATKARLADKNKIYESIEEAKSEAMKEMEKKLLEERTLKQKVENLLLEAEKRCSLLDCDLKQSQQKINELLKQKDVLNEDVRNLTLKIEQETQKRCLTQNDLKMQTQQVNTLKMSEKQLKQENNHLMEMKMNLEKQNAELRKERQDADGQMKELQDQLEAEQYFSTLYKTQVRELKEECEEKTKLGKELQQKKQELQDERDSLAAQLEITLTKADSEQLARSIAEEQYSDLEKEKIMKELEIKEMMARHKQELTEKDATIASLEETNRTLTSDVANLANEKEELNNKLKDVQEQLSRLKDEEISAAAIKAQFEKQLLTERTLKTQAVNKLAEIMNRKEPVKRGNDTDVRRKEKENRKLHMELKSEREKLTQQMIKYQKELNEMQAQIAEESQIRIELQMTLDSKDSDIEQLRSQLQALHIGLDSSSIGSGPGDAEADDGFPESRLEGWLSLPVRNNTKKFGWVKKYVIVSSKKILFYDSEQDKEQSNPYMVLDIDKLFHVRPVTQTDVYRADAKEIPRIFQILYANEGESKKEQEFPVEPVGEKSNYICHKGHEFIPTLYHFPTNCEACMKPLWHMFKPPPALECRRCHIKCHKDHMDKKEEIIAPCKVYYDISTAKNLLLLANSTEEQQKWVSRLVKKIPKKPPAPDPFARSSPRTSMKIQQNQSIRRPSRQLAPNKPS

IC50 [1] [nM] | IC50 [2] [nM] | SMILES
< 1000 | < 1000 | CC(=O)Nc1cc(C(=O)NCCN(C)C)cc(-c2nnc(Nc3ccc4[nH]ncc4c3Cl)s2)c1
 | < 1000 | O=C(Nc1cccc(-c2nnc(Nc3ccc4[nH]ncc4c3Cl)s2)c1)C1CCNCC1
> 30000 |  | Clc1c(Nc2nnc(-c3cccc4c3ncn4CCN3CCCC3)s2)ccc2[nH]ncc12
> 30000 | < 1000 | O=S(=O)(CCO)Nc1cccc(-c2nnc(Nc3ccc4[nH]ncc4c3)s2)c1
> 30000 |  | CCOC(=O)N(c1nnc(-c2cccc(NC(=O)Cc3ccc(F)cc3)c2)s1)c1ccc2[nH]ncc2c1Cl
< 1000 | < 1000 | O=C(Nc1cccc(-c2nnc(Nc3ccc4[nH]ncc4c3Cl)s2)c1)C1CCCCC1
< 1000 | < 1000 | CNC(=O)c1cc(NC(C)=O)cc(-c2nnc(Nc3ccc4[nH]ncc4c3Cl)s2)c1
> 30000 | < 1000 | N#Cc1ccc(-c2cn3cccc(-c4nnc(Nc5ccc6[nH]ncc6c5Cl)s4)c3n2)cc1
< 1000 | < 1000 | CC(=O)Nc1cccc(-c2nnc(Nc3ccc4[nH]ncc4c3Br)s2)c1
< 1000 | < 1000 | CC(=O)Nc1cc(C(=O)N2CCNCC2)cc(-c2nnc(Nc3ccc4[nH]ncc4c3Cl)s2)c1
< 1000 | < 1000 | NCc1ccc(C(=O)Nc2cccc(-c3nnc(Nc4ccc5[nH]ncc5c4)s3)c2)cn1
< 1000 | < 1000 | CC(=O)Nc1cccc(-c2nnc(Nc3ccc4[nH]ncc4c3)s2)c1
< 1000 | < 1000 | CN1CCC(C(=O)Nc2cccc(-c3nnc(Nc4ccc5[nH]ncc5c4Cl)s3)c2)CC1
> 30000 | < 1000 | CCCCOC(=O)N(c1nnc(-c2cccc(NC(=O)Cc3ccc(F)cc3)c2)s1)c1ccc2[nH]ncc2c1Cl
> 30000 | < 1000 | CC(=O)Nc1cc(C)cc(-c2nnc(Nc3ccc4[nH]ncc4c3)s2)c1
< 1000 | < 1000 | CC(=O)Nc1cc(C(N)=O)cc(-c2nnc(Nc3ccc4[nH]ncc4c3)s2)c1
> 30000 | < 1000 | O=C(Nc1cccc(-c2nnc(Nc3ccc4[nH]ncc4c3Cl)s2)c1)C(F)(F)F
< 1000 | < 1000 | Clc1c(Nc2nnc(-c3cccc(-c4nccn4CCN4CCOCC4)c3)s2)ccc2[nH]ncc12
> 30000 | < 1000 | Clc1c(Nc2nnc(-c3cccc(-c4nccn4CCN4CCCC4)c3)s2)ccc2[nH]ncc12
< 1000 | < 1000 | CC(=O)Nc1cc(C(N)=O)cc(-c2nnc(Nc3ccc4[nH]ncc4c3Cl)s2)c1
> 30000 | < 1000 | CC(=O)Nc1ccc(Cl)c(-c2nnc(Nc3ccc4[nH]ncc4c3Cl)s2)c1
< 1000 | < 1000 | CN(C)CCn1cnc2c(-c3nnc(Nc4ccc5[nH]ncc5c4Cl)s3)cccc21
< 1000 | < 1000 | CC(C)(O)C(=O)Nc1cccc(-c2nnc(Nc3ccc4[nH]ncc4c3Cl)s2)c1
 | < 1000 | CC1(C(=O)Nc2cccc(-c3nnc(Nc4ccc5[nH]ncc5c4Cl)s3)c2)CCCCC1
< 1000 | < 1000 | O=C(CC(F)(F)F)Nc1cccc(-c2nnc(Nc3ccc4[nH]ncc4c3Cl)s2)c1
< 1000 | < 1000 | CC(=O)Nc1cc(C(=O)N2CCOCC2)cc(-c2nnc(Nc3ccc4[nH]ncc4c3Cl)s2)c1
 | < 1000 | CN1CC(C(=O)Nc2cccc(-c3nnc(Nc4ccc5[nH]ncc5c4Cl)s3)c2)C1

SMILES | IC50 [1] [nM] | IC50 [2] [nM]
COCCOC(=O)Nc1cc(-c2nnc(Nc3ccc4[nH]ncc4c3Cl)s2)ccn1 | > 30000 | < 1000
Cc1cn2cccc(-c3nnc(Nc4ccc5[nH]ncc5c4Cl)s3)c2n1 | < 1000 | < 1000
